Laboratory results from patent US11427567B2, “Imidazolyl pyrimidinylamine compounds as CDK2 inhibitors” (Incyte Corporation, priority 2019, dated 2022).

What follows are compounds tested against CDK2/Cyclin E1 (Homo sapiens (Human), UniProt P24941) (assay: CDK2/Cyclin E1 HTRF enzyme activity assay (Example A)). Conditions: 1 mM ATP.
Type: biochemical
Method: Assays were conducted in white 384-well polystyrene plates in a final reaction volume of 8 μL. […] HTRF signals were read after 1 hour at room temperature on a PHERAstar FS plate reader (BMG Labtech). Data was analyzed with IDBS XLFit and GraphPad Prism 5.0 software using a three or four parameter dose response curve to determine IC50 for each compound.

SMILES	IC50 [nM]
CS(=O)(=O)N1CCC(Nc2ncc(C(F)(F)F)c(-c3cn(-c4ccc5cccnc5c4Cl)cn3)n2)CC1 [Example 165, 4-(1-(8-Chloroquinolin-7-yl)-1H-imidazol-4-yl)-N-(1-(methyl-sulfonyl)piperidin-4-yl)-5-(trifluoromethyl)-pyrimidin-2-amine]	≤ 50
Cc1c(-n2cnc(-c3nc(NC4CCN(S(C)(=O)=O)CC4)ncc3C(F)(F)F)c2)ccc2nccnc12 [Example 166, 4-(1-(5-Methylquinoxalin-6-yl)-1H-imidazol-4-yl)-N-(1-(methylsulfonyl)piperidin-4-yl)-5-(trifluoromethyl)pyrimidin-2-amine]	≤ 50
CS(=O)(=O)N1CCC(Nc2ncc(C(F)(F)F)c(-c3cn(-c4ccc5nccnc5c4C#N)cn3)n2)CC1 [Example 167, 6-(4-(2-((1-(Methylsulfonyl)piperidin-4-yl)amino)-5-(trifluoromethyl)pyrimidin-4-yl)-1H-imidazol-1-yl)quinoxaline-5-carbonitrile]	≤ 50
Cc1cc(C#N)ncc1-n1cnc(-c2nc(NC3CCN(S(C)(=O)=O)CC3)ncc2C(F)(F)F)c1 [Example 168, 4-Methyl-5-(4-(2-((1-(methylsulfonyl)piperidin-4-yl)amino)-5-(trifluoromethyl)pyrimidin-4-yl)-1H-imidazol-1-yl)picolinonitrile]	≤ 50
Cc1nn(C)cc1-n1cnc(-c2nc(NC3CCN(S(C)(=O)=O)CC3)ncc2C(F)(F)F)c1 [Example 169, 4-(1-(1,3-Dimethyl-1H-pyrazol-4-yl)-1H-imidazol-4-yl)-N-(1-(methylsulfonyl)piperidin-4-yl)-5-(trifluoromethyl)pyrimidin-2-amine]	≤ 50
CS(=O)(=O)N1CCC(Nc2ncc(C(F)(F)F)c(-c3ncn(-c4ccc(C#N)cc4Cl)c3Cl)n2)CC1 [Example 170, 3-Chloro-4-(5-chloro-4-(2-((1-(methylsulfonyl)piperidin-4-yl)amino)-5-(trifluoromethyl)pyrimidin-4-yl)-1H-imidazol-1-yl)benzonitrile]	≤ 50
CS(=O)(=O)N1CCC(Nc2ncc(Cl)c(-c3cn(-c4ccc(C#N)cc4Cl)cn3)n2)CC1 [Example 171, 3-Chloro-4-(4-(5-chloro-2-((1-(methylsulfonyl)-piperidin-4-yl)-amino)pyrimidin-4-yl)-1H-imidazol-1-yl)benzonitrile]	≤ 50
C[C@@H]1CN(S(C)(=O)=O)CC[C@@H]1Nc1ncc(C(F)(F)F)c(-c2cn(-c3ccc(C#N)cc3Cl)cn2)n1 [Example 172, 3-Chloro-4-(4-(2-(((3R,4S)-3-methyl-1-(methylsulfonyl)-piperidin-4-yl)-amino)-5-(trifluoro-methyl)pyrimidin-4-yl)-1H-imidazol-1-yl)benzonitrile]	≤ 50
CS(=O)(=O)N1CC[C@@H](Nc2ncc(C(F)(F)F)c(-c3cn(-c4ccc(C#N)cc4Cl)cn3)n2)[C@H](F)C1 [Example 173, 3-Chloro-4-(4-(2-(((3R,4R)-3-fluoro-1-(methylsulfonyl)-piperidin-4-yl)-amino)-5-(trifluoro-methyl)pyrimidin-4-yl)-1H-imidazol-1-yl)benzonitrile]	≤ 50
CC(=O)N(C)Cc1ccc(-n2cnc(-c3nc(NC4CCN(S(C)(=O)=O)CC4)ncc3C(F)(F)F)c2)c(Cl)c1 [Example 174, N-(3-Chloro-4-(4-(2-((1-(methylsulfonyl)piperidin-4-yl)amino)-5-(trifluoromethyl)pyrimidin-4-yl)-1H-imidazol-1-yl)benzyl)-N-methylacetamide]	≤ 50
CN(C)Cc1ccc(-n2cnc(-c3nc(NC4CCN(S(C)(=O)=O)CC4)ncc3C(F)(F)F)c2)c(Cl)c1 [Example 175, 4-(1-(2-Chloro-4-((dimethylamino)methyl)phenyl)-1H-imidazol-4-yl)-N-(1-(methylsulfonyl)piperidin-4-yl)-5-(trifluoromethyl)pyrimidin-2-amine]	≤ 50
CC1CN(Cc2ccc(-n3cnc(-c4nc(NC5CCN(S(C)(=O)=O)CC5)ncc4C(F)(F)F)c3)c(Cl)c2)C1 [Example 177, 4-(1-(2-Chloro-4-((3-methylazetidin-1-yl)methyl)phenyl)-1H-imidazol-4-yl)-N-(1-(methylsulfonyl)piperidin-4-yl)-5-(trifluoromethyl)pyrimidin-2-amine]	≤ 50
CS(=O)(=O)N1CCC(Nc2ncc(C(F)(F)F)c(-c3cn(-c4ccc(CN5CCCC5)cc4Cl)cn3)n2)CC1 [Example 178, 4-(1-(2-Chloro-4-(pyrrolidin-1-ylmethyl)phenyl)-1H-imidazol-4-yl)-N-(1-(methylsulfonyl)piperidin-4-yl)-5-(trifluoromethyl)pyrimidin-2-amine]	≤ 50
CS(=O)(=O)N1CCC(Nc2ncc(C(F)(F)F)c(-c3cn(-c4ccc(CN5CC6CCC5CC6)cc4Cl)cn3)n2)CC1 [Example 179, 4-(1-(4-((2-Azabicyclo[2.2.2]octan-2-yl)methyl)-2-chlorophenyl)-1H-imidazol-4-yl)-N-(1-(methylsulfonyl)piperidin-4-yl)-5-(trifluoromethyl)pyrimidin-2-amine]	≤ 50
CS(=O)(=O)N1CCC(Nc2ncc(C(F)(F)F)c(-c3cn(-c4ccc(CN5CC6CCC5C6)cc4Cl)cn3)n2)CC1 (stereo not drawn) [Example 180, 4-(1-(4-((2-Azabicyclo[2.2.1]heptan-2-yl)methyl)-2-chlorophenyl)-1H-imidazol-4-yl)-N-(1-(methylsulfonyl)piperidin-4-yl)-5-(trifluoromethyl)pyrimidin-2-amine]	≤ 50
C[C@@]1(O)CCN(Cc2ccc(-n3cnc(-c4nc(NC5CCN(S(C)(=O)=O)CC5)ncc4C(F)(F)F)c3)c(Cl)c2)C1 [Example 181, (R)-1-(3-Chloro-4-(4-(2-((1-(methylsulfonyl)piperidin-4-yl)amino)-5-(trifluoromethyl)pyrimidin-4-yl)-1H-imidazol-1-yl)benzyl)-3-methylpyrrolidin-3-ol]	≤ 50
CNCc1ccc(-n2cnc(-c3nc(N[C@H]4CCN(S(C)(=O)=O)C[C@H]4C)ncc3C(F)(F)F)c2)c(Cl)c1 [Example 182, 4-(1-(2-Chloro-4-((methylamino)methyl)phenyl)-1H-imidazol-4-yl)-N-((3R,4S)-3-methyl-1-(methylsulfonyl)piperidin-4-yl)-5-(trifluoromethyl)pyrimidin-2-amine]	≤ 50
CN(C)Cc1ccc(-n2cnc(-c3nc(N[C@H]4CCN(S(C)(=O)=O)C[C@H]4F)ncc3C(F)(F)F)c2)c(Cl)c1 [Example 183, 4-(1-(2-Chloro-4-((dimethylamino)methyl)phenyl)-1H-imidazol-4-yl)-N-((3R,4S)-3-fluoro-1-(methylsulfonyl)piperidin-4-yl)-5-(trifluoromethyl)pyrimidin-2-amine]	≤ 50
CS(=O)(=O)N1CC[C@H](Nc2ncc(C(F)(F)F)c(-c3cn(-c4ccc(CN5CCC5)cc4Cl)cn3)n2)[C@H](F)C1 [Example 184, 4-(1-(4-(Azetidin-1-ylmethyl)-2-chlorophenyl)-1H-imidazol-4-yl)-N-((3R,4S)-3-fluoro-1-(methylsulfonyl)piperidin-4-yl)-5-(trifluoromethyl)pyrimidin-2-amine]	≤ 50
CC(=O)NCc1ccc(-n2cnc(-c3nc(NC4CCN(S(C)(=O)=O)CC4)ncc3C(F)(F)F)c2)c(Cl)c1 [Example 185, N-(3-Chloro-4-(4-(2-((1-(methylsulfonyl)piperidin-4-yl)amino)-5-(trifluoromethyl)pyrimidin-4-yl)-1H-imidazol-1-yl)benzyl)acetamide]	≤ 50
CS(=O)(=O)N1CCC(Nc2ncc(C(F)(F)F)c(-c3cn(-c4ccc(CNCC(F)F)cc4Cl)cn3)n2)CC1 [Example 186, 4-(1-(2-Chloro-4-(((2,2-difluoroethyl)-amino)methyl)phenyl)-1H-imidazol-4-yl)-N-(1-(methylsulfonyl)-piperidin-4-yl)-5-(trifluoromethyl)-pyrimidin-2-amine]	≤ 50
CS(=O)(=O)N1CCC(Nc2ncc(C(F)(F)F)c(-c3cn(-c4ccc(CNCC#N)cc4Cl)cn3)n2)CC1 [Example 187, 2-((3-Chloro-4-(4-(2-((1-(methylsulfonyl)-piperidin-4-yl)amino)-5-(trifluoromethyl)-pyrimidin-4-yl)-1H-imidazol-1-yl)benzyl)-amino)acetonitrile]	≤ 50
CS(=O)(=O)N1CCC(Nc2ncc(C(F)(F)F)c(-c3cn(-c4ccc(CNCC(F)(F)F)cc4Cl)cn3)n2)CC1 [Example 188, 4-(1-(2-Chloro-4-(((2,2,2-trifluoroethyl)-amino)methyl)phenyl)-1H-imidazol-4-yl)-N-(1-(methylsulfonyl)-piperidin-4-yl)-5-(trifluoromethyl)-pyrimidin-2-amine]	≤ 50
CCNCc1ccc(-n2cnc(-c3nc(NC4CCN(S(C)(=O)=O)CC4)ncc3C(F)(F)F)c2)c(Cl)c1 [Example 189, 4-(1-(2-Chloro-4-((ethylamino)methyl)-phenyl)-1H-imidazol-4-yl)-N-(1-(methyl-sulfonyl)piperidin-4-yl)-5-(trifluoro-methyl)pyrimidin-2-amine]	≤ 50
CS(=O)(=O)N1CCC(Nc2ncc(C(F)(F)F)c(-c3cn(-c4ccc(CNC5CC5)cc4Cl)cn3)n2)CC1 [Example 190, 4-(1-(2-Chloro-4-((cyclopropylamino)-methyl)phenyl)-1H-imidazol-4-yl)-N-(1-(methylsulfonyl)-piperidin-4-yl)-5-(trifluoromethyl)-pyrimidin-2-amine]	≤ 50
CS(=O)(=O)N1CCC(Nc2ncc(C(F)(F)F)c(-c3cn(-c4ccc(CNCC5CC5)cc4Cl)cn3)n2)CC1 [Example 191, 4-(1-(2-Chloro-4-(((cyclopropylmethyl)-amino)methyl)phenyl)-1H-imidazol-4-yl)-N-(1-(methylsulfonyl)-piperidin-4-yl)-5-(trifluoromethyl)-pyrimidin-2-amine]	≤ 50
CCN(C)Cc1ccc(-n2cnc(-c3nc(NC4CCN(S(C)(=O)=O)CC4)ncc3C(F)(F)F)c2)c(Cl)c1 [Example 192]	≤ 50
